From patent US6503727B1, “Process for the preparation of an antibiotic” (Gist-Brocades, B.V., priority 1995, dated 2003) come the findings set out here.

SMILES strings stand for the structures. Read-outs that look alike come from different tables or passages of the source.

The conditions of data set [1]: final pH 4.5, 2 hours, 20° C.
Protocol: (§1) The following synthetic mixtures were prepared, with a final pH of 4.5:
(§2) After 2 hours' incubation in a shaker incubator (20° C.) samples were taken and the dissolved concentration of each of these components was determined.
Data set [2] in a line: Effect of PGA and AMPI on the solubility of 6-APA (dissolved concentrations in synthetic mixtures). The settings on record: final pH 4.5, 2 hours, 20° C.
Protocol: as §1, §2
Data set [3] in a line: Effect of PGA and CEX on the solubility of 7-ADCA (dissolved concentrations in synthetic mixtures). Particulars: final pH 4.5, 2 hours, 20° C.
Protocol: Effect of PGA and PEX on the Solubility of 7-ADCA
The following synthetic mixtures were prepared, with a final pH of 4.5;
3% (m/m) 7-ADCA and 3.0% (m/m) CEX.H2O in water.
as §2
The mark [4] stands for this setting: Example II Mixture 2: 3% (m/m) 6-APA and 0.4% (m/m) PG in water.
The mark [5] stands for this setting: Example II Mixture 3: 3% (m/m) 6-APA, 0.4% (m/m) PG and 1.5% (m/m) PGA in water.
[6] abbreviates: Example II Mixture 4: 3% (m/m) 6-APA, 0.4% (m/m) PG, 1.5% (m/m) PGA and 3.0% (m/m) AMPI in water.
[7] abbreviates: Example I Mixture 3: 3% (m/m) 7-ADCA, 0.4% (m/m) PG and 1.5% (m/m) PGA in water.
Setting [8] is: Example I Mixture 4: 3% (m/m) 7-ADCA, 0.4% (m/m) PC, 1.5% (m/m) PGA and 3.0% (m/m) CEX.H2O in water.

On to `CC1(C)S[C@@H]2[C@H](N)C(=O)N2[C@H]1C(=O)O` [6-APA, 6-aminopenicillanic acid], for which the “Dissolved Concentrations” value in data set [1] (Example III Mixture 1: 3% (m/m) 6-APA in water) was 0.35 % (m/m); in data set [1] (Example III Mixture 2: 3% (m/m) 6-APA and 0.5% (m/m) HPG in water) it was 0.35 % (m/m); in data set [1] (Example III Mixture 3: 3% (m/m) 6-APA, 0.5% (m/m) HPG and 1.5% (m/m) HPGA in water) it was 0.40 % (m/m); in data set [1] (Example III Mixture 4: 3% (m/m) 6-APA, 0.5% (m/m) HPG and 2.0% HPG-Me in water), 0.50 % (m/m); in data set [1] (Example III Mixture 5: 3% (m/m) 6-APA, 0.5% (m/m) HPG, 1.5% (m/m) HPGA and 3.0% AMOX in water), 1.40 % (m/m); in data set [1] (Example III Mixture 6: 3.0% (m/m) 6-APA, 0.5% (m/m) HPG, 2.0% (m/m) HPG-Me and 3.0% (m/m) AMOX in water), 2.15 % (m/m). Also, the dissolved concentration turned out to be 0.35 in data set [2] (Example II Mixture 1: 3% (m/m) 6-APA in water), 0.40 in data set [2] (setting [4]), 0.40 in data set [2] (setting [5]) and 0.90 in data set [2] (setting [6]).

On to `N[C@@H](C(=O)O)c1ccccc1` [PG, D-phenyl glycine], for which the Dissolved Concentrations in data set [3] (Example I Mixture 2: 3% (m/m) 7-ADCA and 0.4% (m/m) PG in water) is reported as 0.40 % (m/m); in data set [3] (setting [7]) it was 0.40 % (m/m); in data set [3] (setting [8]), 0.40 % (m/m). In addition, the dissolved concentration in data set [2] (setting [4]), in data set [2] (setting [5]) and in data set [2] (setting [6]) was 0.4 each time.

Take `NC(=O)[C@H](N)c1ccccc1` [PGA, D-phenyl glycine amide]: the Dissolved Concentrations in data set [3] (setting [7]) and in data set [3] (setting [8]) was 1.5 % (m/m) in each case. Besides, the dissolved concentration in data set [2] (setting [5]) and in data set [2] (setting [6]) was 1.5 each time.
